The values that follow come from ChEMBL document CHEMBL5576152, “Antitubercular evaluation of dihydropyridine-triazole conjugates: design, synthesis, in vitro screening, SAR and in silico ADME predictions” (RSC Med Chem, 2024).

In brackets after ≈: the same amount, converted by molar mass.

In general, MIC90 refers to the lowest concentration that inhibits either 90% of growth or 90% of the strains tested, depending on the study. As usually defined, the CC50 is the concentration that lowers cell viability or growth by half. By Cmax is commonly meant the peak of the concentration-time curve. Usually half-life stands for how long it takes for the measured level to halve. A word on the MRT: it is a mean duration of stay, worked out from the concentration-time curve. By Tmax is commonly meant the time at which the peak concentration occurs. By MIC is commonly meant the smallest concentration in the dilution series that meets the test's criterion for growth inhibition. What is called inhibition is the drop in the measured response relative to a control, in per cent.

The subject of data set [1] is Mycobacterium tuberculosis. In words: Antitubercular activity against Mycobacterium tuberculosis H37Ra assessed as reduction in microbial growth incubated for 5 days by resazurin microtiter assay. Conditions: 120 h, time 5 day. The class given is functional. Background: Alamar Blue is a resazurin reagent that responds to reducing activity.
Data set [2] is described as follows: Selectivity index, ratio of CC50 for cytotoxicity against human THP-1 cells to MIC90 for antitubercular activity against Mycobacterium tuberculosis H37Ra. The format is toxicity, cell-based. Conditions: read-out: Selectivity Index.
Data set [3] in a line: Cytotoxicity against human THP-1 cells assessed as reduction in cell viability incubated for 48 hrs by resazurin assay. The format is toxicity, cell-based.
Data set [4] is described as follows: Stability of compound in simulated gastric fluid assessed as remaining compound at pH 1.2 measured upto 120 mins by UPLC analysis. The format is ADME. Conditions: read-out: Stability.
Data set [5] in a line: Cmax in Sprague-Dawley rat at 50 mg/kg, po measured for 5 to 1440 mins by LC-MS/MS analysis. The class given is ADME, organism-based. The settings on record: in vivo, time 5-1440 min.
Data set [6] can be described thus: Stability of compound in simulated intestinal fluid assessed as remaining compound at pH 6.8 measured upto 120 mins by UPLC analysis. The format is ADME. Conditions: read-out: Stability.
A short description of data set [7]: Half life in Sprague-Dawley rat at 50 mg/kg, po measured for 5 to 1440 mins by LC-MS/MS analysis. The format is ADME, organism-based. Conditions: in vivo, time 5-1440 min.
Data set [8] is described as follows: Stability of compound in rat plasma assessed as remaining compound measured upto 120 mins by UPLC analysis. The format is ADME, cell-free. Conditions: read-out: Stability.
Data set [9] is described as follows: Stability of compound in simulated physiological fluid assessed as remaining compound at pH 7.4 measured upto 120 mins by UPLC analysis. The format is ADME. Conditions: read-out: Stability.
Data set [10] is described as follows: Apparent volume of distribution in Sprague-Dawley rat at 50 mg/kg, po measured for 5 to 1440 mins by LC-MS/MS analysis. The class given is ADME, organism-based. The settings on record: in vivo, time 5-1440 min.
Data set [11] can be described thus: MRT in Sprague-Dawley rat at 50 mg/kg, po measured for 5 to 1440 mins by LC-MS/MS analysis. The class given is ADME, organism-based. The settings on record: in vivo, time 5-1440 min.
A short description of data set [12]: Tmax in Sprague-Dawley rat at 50 mg/kg, po measured for 5 to 1440 mins by LC-MS/MS analysis. The class given is ADME, organism-based. Conditions: in vivo, time 5-1440 min.
Data set [13] deals with Mycobacterium tuberculosis. The data set can be described thus: Antitubercular activity against Mycobacterium tuberculosis H37Rv assessed as reduction in microbial growth by BACTEC 460-radiometric assay. The class given is functional.
The subject of data set [14] is Mycobacterium tuberculosis. In words: Antitubercular activity against Mycobacterium tuberculosis H37Rv assessed as reduction in microbial growth by microplate alamar blue assay. The format is functional.
The test system of data set [15] is Mycobacterium tuberculosis. The data set can be described thus: Antitubercular activity against Mycobacterium tuberculosis H37Ra assessed as reduction in microbial growth at 2 ug/ml incubated for 5 days by resazurin microtiter assay relative to control. The class given is functional. Conditions: 120 h, time 5 day.
In data set [16] the test system is Mycobacterium tuberculosis. The data set can be described thus: Antitubercular activity against Mycobacterium tuberculosis H37Ra assessed as reduction in microbial growth at 6 ug/ml incubated for 5 days by resazurin microtiter assay relative to control. The format is functional. Conditions: 120 h, time 5 day.

As to `CC1=C(C(=O)NCc2cn(-c3ccc(C)cc3)nn2)C(c2ccc(Cl)cc2)C2=C(CC(C)(C)CC2=O)N1` (stereo not given), the MIC90 in data set [1] is 6.44 µg/mL. The selectivity ratio in [2] was determined as 6.88. The 50% cytotoxic concentration (CC50) at 48 h in data set [3] worked out at 44.3 µg/mL (≈ 85.9 µM).
For `CC1=C(C(=O)NCc2cn(Cc3ccccc3)nn2)C(c2ccccc2)C2=C(CC(C)(C)CC2=O)N1` (stereo not given), the MIC90 in data set [1] was over 25 µg/mL.
With `COc1cc(C2C(C(=O)NCc3cn(-c4ccccc4)nn3)=C(C)NC3=C2C(=O)CC(C)(C)C3)cc(OC)c1OC` (stereo not given), the MIC90 in data set [1] was over 25 µg/mL.
Still for that read-out and setting: as for `COc1ccc(-n2cc(CNC(=O)C3=C(C)NC4=C(C(=O)CC(C)(C)C4)C3c3cccc(Cl)c3)nn2)cc1` (stereo not given), the figure is over 25 µg/mL; as for `CC1=C(C(=O)NCc2cn(-c3ccc(F)cc3)nn2)C(c2ccc(Cl)cc2)C2=C(CC(C)(C)CC2=O)N1` (stereo not given), 25.9 µg/mL; as for `COc1cc(C2C(C(=O)NCc3cn(-c4cccc(C(F)(F)F)c4)nn3)=C(C)NC3=C2C(=O)CC(C)(C)C3)cc(OC)c1OC` (stereo not given), over 25 µg/mL.
Regarding `COc1ccc(C2C(C(=O)NCc3cn(-c4cccc(C(F)(F)F)c4)nn3)=C(C)NC3=C2C(=O)CC(C)(C)C3)cc1` (stereo not given), the MIC90 in [1] was over 25 µg/mL.
The same measure, in the same setting: as for `CC1=C(C(=O)NCc2cn(-c3ccccc3)nn2)C(c2ccccc2)C2=C(CC(C)(C)CC2=O)N1` (stereo not given), the figure is over 25 µg/mL.
The same measure, in the same setting: under `CC1=C(C(=O)NCc2cn(-c3ccc(C)cc3)nn2)C(c2ccccc2)C2=C(CC(C)(C)CC2=O)N1` (stereo not given) stands 24.1 µg/mL; under `COc1cc(C2C(C(=O)NCc3cn(-c4ccc(F)cc4)nn3)=C(C)NC3=C2C(=O)CC(C)(C)C3)cc(OC)c1OC` (stereo not given), over 25 µg/mL; under `CC1=C(C(=O)NCc2cn(-c3ccc(F)cc3)nn2)C(c2cccs2)C2=C(CC(C)(C)CC2=O)N1` (stereo not given), over 25 µg/mL.
For `COc1ccc(-n2cc(CNC(=O)C3=C(C)NC4=C(C(=O)CC(C)(C)C4)C3c3cccs3)nn2)cc1` (stereo not given), in data set [1], the MIC90 is over 25 µg/mL.
As for `CC1=C(C(=O)NCc2cn(-c3ccccc3)nn2)C(c2ccc(F)cc2)C2=C(CC(C)(C)CC2=O)N1` (stereo not given), the MIC90 in [1] was 12.1 µg/mL.
For the molecule `CC1=C(C(=O)NCc2cn(-c3ccc(Cl)cc3)nn2)C(c2scnc2C)C2=C(CC(C)(C)CC2=O)N1` (stereo not given), the MIC90 in data set [1] is over 25 µg/mL.
`CC1=C(C(=O)NCc2cn(-c3ccc(C)cc3)nn2)C(c2ccc(F)cc2)C2=C(CC(C)(C)CC2=O)N1` (stereo not given): the remaining at 2 h in data set [4], in [6], in data set [8] and in data set [9] was at least 70% in each case. For the same molecule, the highest level in data set [5] (Cmax) was 1400 ng/mL. Moreover, in [7], the half-life was 250 min. Besides, in [10], the “Vd(app)” value stood at 27.78 mL/kg. Also, the MRT in data set [11] came to 6.69 h. Besides, the MIC90 in data set [1] stood at 6.24 µg/mL. Further, in data set [12], the time of peak concentration (Tmax) is 1.33 h. The selectivity ratio in data set [2] was over 16. Moreover, the CC50 at 48 h in data set [3] is over 99.8 µg/mL.
Consider `CC1=C(C(=O)NCc2cn(-c3ccc(C)cc3)nn2)C(c2scnc2C)C2=C(CC(C)(C)CC2=O)N1` (stereo not given), for which the MIC90 in data set [1] is over 25 µg/mL.
In the case of `COc1ccc(-n2cc(CNC(=O)C3=C(C)NC4=C(C(=O)CC(C)(C)C4)C3c3ccc(Cl)cc3)nn2)cc1` (stereo not given), in [1], the MIC90 is 6.64 µg/mL. Besides, in data set [2], the selectivity ratio was determined as 9.73. In data set [3], the CC50 at 48 h was found to be 64.6 µg/mL (≈ 121 µM).
As to `COc1ccc(C2C(C(=O)NCc3cn(-c4ccccc4)nn3)=C(C)NC3=C2C(=O)CC(C)(C)C3)cc1` (stereo not given), in data set [1], the MIC90 was over 25 µg/mL.
For `COC(=O)C1=C(C)NC(C)=C(C2=NN(C(C)=O)C(c3ccccc3)C2)C1c1cccc([N+](=O)[O-])c1` (stereo not given), in data set [13], the MIC is over 12.5 µg/mL.
Take `CC1=C(C(=O)NCc2cn(-c3ccccc3)nn2)C(c2ccc(Cl)cc2)C2=C(CC(C)(C)CC2=O)N1` (stereo not given): the MIC90 in data set [1] is 6.26 µg/mL. The selectivity ratio in [2] is 10.6. Further, the CC50 at 48 h in data set [3] was 66.4 µg/mL (≈ 132 µM).
With `CC1=C(C(=O)NCc2cn(Cc3ccccc3)nn2)C(c2ccc(Cl)cc2)C2=C(CC(C)(C)CC2=O)N1` (stereo not given), the MIC90 in data set [1] was over 25 µg/mL.
Take `CC1=C(C(=O)NCc2cn(-c3ccc(Cl)cc3)nn2)C(c2ccccc2)C2=C(CC(C)(C)CC2=O)N1` (stereo not given): the MIC90 in data set [1] was determined as 25.1 µg/mL.
On to `CC1=C(C(=O)NCc2cn(-c3ccc(C)cc3)nn2)C(c2ccc(Cl)cc2)C2=C(CCCC2=O)N1` (stereo not given), for which the MIC90 in data set [1] is over 25 µg/mL.
As to `COc1ccc(-n2cc(CNC(=O)C3=C(C)NC4=C(C(=O)CC(C)(C)C4)C3c3ccc(F)cc3)nn2)cc1` (stereo not given), the MIC90 in data set [1] stood at 6.44 µg/mL. The selectivity ratio in data set [2] was over 16. Further, in data set [3], the CC50 at 48 h was over 103 µg/mL.
With `CC1=C(C(=O)NCc2cn(-c3ccccc3C(F)(F)F)nn2)C(c2ccc(Cl)cc2)C2=C(CC(C)(C)CC2=O)N1` (stereo not given), the MIC90 in [1] is over 25 µg/mL.
The same measure, in the same setting: as for `COc1ccc(-n2cc(CNC(=O)C3=C(C)NC4=C(C(=O)CC(C)(C)C4)C3c3ccccn3)nn2)cc1` (stereo not given), the figure is over 25 µg/mL; as for `CC1=C(C(=O)NCc2cn(Cc3ccccc3)nn2)C(c2scnc2C)C2=C(CC(C)(C)CC2=O)N1` (stereo not given), over 25 µg/mL; as for `CC1=C(C(=O)NCc2cn(-c3ccccc3)nn2)C(c2scnc2C)C2=C(CC(C)(C)CC2=O)N1` (stereo not given), over 25 µg/mL.
Same read-out and setting: under `COc1cc(-n2cc(CNC(=O)C3=C(C)NC4=C(C(=O)CC(C)(C)C4)C3c3ccc(Cl)cc3)nn2)cc(OC)c1OC` (stereo not given) stands over 25 µg/mL; under `COc1ccc(-n2cc(CNC(=O)C3=C(C)NC4=C(C(=O)CC(C)(C)C4)C3c3ccccc3Cl)nn2)cc1` (stereo not given), 13.3 µg/mL; under `CC1=C(C(=O)NCc2cn(-c3ccc(C)cc3)nn2)C(c2ccc(F)cc2)C2=C(CCCC2=O)N1` (stereo not given), 11.8 µg/mL.
The same measure, in the same setting: under `CC1=C(C(=O)NCc2cn(-c3ccccc3)nn2)C(c2cccs2)C2=C(CC(C)(C)CC2=O)N1` (stereo not given) stands over 25 µg/mL.
As for `CCCCc1nc(Cl)c(C2C(C(=O)Nc3ccc(F)cc3)=C(C)NC(C)=C2C(=O)Nc2ccc(F)cc2)n1Cc1ccccc1`, the MIC in [14] amounted to 0.02 µg/mL.
On to `CC1=C(C(=O)NCc2cn(-c3ccc(C(C)C)cc3)nn2)C(c2ccc(Cl)cc2)C2=C(CC(C)(C)CC2=O)N1` (stereo not given), for which the MIC90 in data set [1] is 27.2 µg/mL.
For the molecule `CO[C@H]1/C=C/O[C@@]2(C)Oc3c(C)c(O)c4c(O)c(c(/C=N/N5CCN(C)CC5)c(O)c4c3C2=O)NC(=O)/C(C)=C\C=C\[C@H](C)[C@H](O)[C@@H](C)[C@@H](O)[C@@H](C)[C@H](OC(C)=O)[C@@H]1C` [RIFAMPIN], the inhibition at 2 µg/mL in data set [15] is over 99%.
As for `CN[C@@H]1[C@H](O[C@H]2[C@H](O[C@H]3[C@H](O)[C@@H](O)[C@H](N=C(N)N)[C@@H](O)[C@@H]3N=C(N)N)O[C@@H](C)[C@]2(O)C=O)O[C@@H](CO)[C@H](O)[C@H]1O` [STREPTOMYCIN], the inhibition at 6 µg/mL in data set [16] was over 99%.
